Measurements reported in ChEMBL document CHEMBL1145852, “Drug rings database with web interface. A tool for identifying alternative chemical rings in lead discovery programs” (J Med Chem, 2003).
pIC50: −log10 of the molar value.

Biological target: T1, Endothelin-1 receptor (Homo sapiens, UniProt P25101)
T1 sequence (P25101 whole entry): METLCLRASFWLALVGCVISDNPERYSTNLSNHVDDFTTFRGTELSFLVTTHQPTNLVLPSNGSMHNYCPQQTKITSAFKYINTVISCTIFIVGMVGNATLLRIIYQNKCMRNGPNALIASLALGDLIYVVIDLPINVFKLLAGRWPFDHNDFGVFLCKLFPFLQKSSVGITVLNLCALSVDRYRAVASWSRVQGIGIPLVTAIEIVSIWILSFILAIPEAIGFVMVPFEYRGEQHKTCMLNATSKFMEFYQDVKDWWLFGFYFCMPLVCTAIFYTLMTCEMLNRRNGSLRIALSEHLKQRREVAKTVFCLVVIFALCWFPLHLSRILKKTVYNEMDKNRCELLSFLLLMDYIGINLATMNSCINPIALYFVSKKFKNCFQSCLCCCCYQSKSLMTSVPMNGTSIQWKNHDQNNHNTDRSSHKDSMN
Test: Potency at Endothelin A receptor was determined

| pIC50 | SMILES |
| --- | --- |
| 7.48 | COc1cc2c(-c3ccc4c(c3)OCO4)c(C(=O)O)n(Cc3ccc4nsnc4c3)c2cc1OC |
| 5.60 | CCCOc1ccc2c(c1)c(-c1ccc3c(c1)OCO3)c(C(=O)O)n2Cc1ccc2nonc2c1 |

More lines, now with the values behind:

| SMILES | pIC50 |
| --- | --- |
| CCCOc1ccc2c(c1)c(-c1ccc3c(c1)OCO3)c(C(=O)O)n2Cc1ccc2c(c1)OCO2 | 6.60 |
| COc1cc2c(-c3ccc4c(c3)OCO4)c(C(=O)O)n(Cc3ccc4c(c3)OCO4)c2cc1OC | 6.82 |
| CCCOc1ccc2c(c1)c(-c1ccc3c(c1)OCO3)c(C(=O)O)n2Cc1ccc2nsnc2c1 | 7.01 |
